Tests used:
Format in all cases: functional
Escherichia coli [1] = test: Antibacterial activity against Escherichia coli X580 at 2 mg/ml after overnight incubation by hole plate method relative to cephalosporin C
Escherichia coli [2] = test: Antibacterial activity against Escherichia coli X580 at 2 mg/ml after overnight incubation by hole plate method; conditions: read-out: DIZ
Staphylococcus aureus [3] = test: Antibacterial activity against Staphylococcus aureus NCTC 6571 at 2 mg/ml after overnight incubation by hole plate method relative to cephalosporin C
Staphylococcus aureus [4] = test: Antibacterial activity against Staphylococcus aureus NCTC 6571 at 2 mg/ml after overnight incubation by hole plate method; conditions: read-out: DIZ

SMILES | fold change (FC) (Escherichia coli [1]) | zone of inhibition at 2000 µg/mL (Escherichia coli [2]) | fold change (FC) (Staphylococcus aureus [3]) | zone of inhibition at 2000 µg/mL (Staphylococcus aureus [4])
COc1ccc(-c2cc(-c3ccc(-n4nc5c(c4C)N(C)S(=O)(=O)c4ccccc4-5)cc3)nc(N)n2)cc1OC | 4.13 | 14 mm |  | 
COc1ccc(-c2cc(-c3ccc(-n4nc5c(c4C)N(C)S(=O)(=O)c4ccccc4-5)cc3)nc(N)n2)c(OC)c1OC | 19.06 | 24 mm |  | 
COc1cc(-c2cc(-c3ccc(-n4nc5c(c4C)N(C)S(=O)(=O)c4ccccc4-5)cc3)nc(N)n2)cc(OC)c1OC | 3.55 | 13 mm |  | 
Cc1c2c(nn1-c1ccc(-c3cc(-c4ccc([N+](=O)[O-])cc4)nc(N)n3)cc1)-c1ccccc1S(=O)(=O)N2C | 4.13 | 14 mm |  | 
Cc1c2c(nn1-c1ccc(-c3cc(-c4ccccc4)nc(N)n3)cc1)-c1ccccc1S(=O)(=O)N2C | 4.13 | 14 mm |  | 
Cc1ccc(-c2cc(-c3ccc(-n4nc5c(c4C)N(C)S(=O)(=O)c4ccccc4-5)cc3)nc(N)n2)cc1 | 4.13 | 14 mm |  | 
Cc1cc(C)c(-c2cc(-c3ccc(-n4nc5c(c4C)N(C)S(=O)(=O)c4ccccc4-5)cc3)nc(N)n2)c(C)c1 | 4.81 | 15 mm |  | 
Cc1ccc(C(=O)/C=C/c2ccc(-n3nc4c(c3C)N(C)S(=O)(=O)c3ccccc3-4)cc2)cc1 | 3.55 | 13 mm |  | 
Cc1cc(C)c(C(=O)/C=C/c2ccc(-n3nc4c(c3C)N(C)S(=O)(=O)c3ccccc3-4)cc2)c(C)c1 | 4.81 | 15 mm |  | 
Cc1c2c(nn1-c1ccc(-c3cc(-c4ccc(F)cc4)nc(N)n3)cc1)-c1ccccc1S(=O)(=O)N2C | 4.81 | 15 mm |  | 
Cc1c2c(nn1-c1ccc(-c3cc(-c4ccc(Cl)cc4)nc(N)n3)cc1)-c1ccccc1S(=O)(=O)N2C | 5.61 | 16 mm |  | 
Cc1c2c(nn1-c1ccc(-c3cc(-c4cccc(Cl)c4)nc(N)n3)cc1)-c1ccccc1S(=O)(=O)N2C | 5.61 | 16 mm |  | 
Cc1c2c(nn1-c1ccc(-c3cc(-c4ccc(Br)cc4)nc(N)n3)cc1)-c1ccccc1S(=O)(=O)N2C | 8.87 | 19 mm | 508 | 17 mm
Cc1c2c(nn1-c1ccc(-c3cc(-c4cccc(Br)c4)nc(N)n3)cc1)-c1ccccc1S(=O)(=O)N2C | 4.13 | 14 mm |  | 
COc1ccccc1-c1cc(-c2ccc(-n3nc4c(c3C)N(C)S(=O)(=O)c3ccccc3-4)cc2)nc(N)n1 | 10.34 | 20 mm | 1390 | 22 mm
Cc1c2c(nn1-c1ccc(C(=O)/C=C/c3ccc(F)cc3)cc1)-c1ccccc1S(=O)(=O)N2C | 4.13 | 14 mm |  | 
Cc1c2c(nn1-c1ccc(C(=O)/C=C/c3ccc(Cl)cc3)cc1)-c1ccccc1S(=O)(=O)N2C | 3.55 | 13 mm |  | 
Cc1c2c(nn1-c1ccc(C(=O)/C=C/c3cccc(Cl)c3)cc1)-c1ccccc1S(=O)(=O)N2C | 4.81 | 15 mm |  | 
Cc1c2c(nn1-c1ccc(C(=O)/C=C/c3ccc(Cl)cc3Cl)cc1)-c1ccccc1S(=O)(=O)N2C | 5.61 | 16 mm |  | 
Cc1c2c(nn1-c1ccc(C(=O)/C=C/c3ccc(Br)cc3)cc1)-c1ccccc1S(=O)(=O)N2C | 4.81 | 15 mm |  | 
Cc1c2c(nn1-c1ccc(C(=O)/C=C/c3cccc(Br)c3)cc1)-c1ccccc1S(=O)(=O)N2C | 6.53 | 17 mm |  | 
COc1ccccc1/C=C/C(=O)c1ccc(-n2nc3c(c2C)N(C)S(=O)(=O)c2ccccc2-3)cc1 | 5.61 | 16 mm |  | 
COc1ccc(/C=C/C(=O)c2ccc(-n3nc4c(c3C)N(C)S(=O)(=O)c3ccccc3-4)cc2)cc1OC | 4.81 | 15 mm |  | 
COc1ccc(/C=C/C(=O)c2ccc(-n3nc4c(c3C)N(C)S(=O)(=O)c3ccccc3-4)cc2)c(OC)c1OC | 4.13 | 14 mm |  | 
Cc1c2c(nn1-c1ccc(C(=O)/C=C/c3ccc([N+](=O)[O-])cc3)cc1)-c1ccccc1S(=O)(=O)N2C | 4.81 | 15 mm |  | 
Cc1c2c(nn1-c1ccc(/C=C/C(=O)c3ccc(Cl)cc3)cc1)-c1ccccc1S(=O)(=O)N2C | 4.13 | 14 mm |  | 
Cc1c2c(nn1-c1ccc(/C=C/C(=O)c3ccc(Br)cc3)cc1)-c1ccccc1S(=O)(=O)N2C | 5.61 | 16 mm |  | 
COc1ccc(C(=O)/C=C/c2ccc(-n3nc4c(c3C)N(C)S(=O)(=O)c3ccccc3-4)cc2)cc1 | 4.81 | 15 mm |  | 
